Inhibition and IC50 data for 15 compounds are collected here from publication PMC11173485, “Connecting GSK-3β Inhibitory Activity with IKK-β or ROCK-1 Inhibition to Target Tau Aggregation and Neuroinflammation in Alzheimer’s Disease—Discovery, In Vitro and In Cellulo Activity of Thiazole-Based Inhibitors” (Molecules, 2024).

Common to all, as to assay type: biochemical
For one experiment, the target named is T1, IKK-β (Homo sapiens, UniProt O14920).
T1 construct: purchased Promega
T1 sequence (O14920 1-756): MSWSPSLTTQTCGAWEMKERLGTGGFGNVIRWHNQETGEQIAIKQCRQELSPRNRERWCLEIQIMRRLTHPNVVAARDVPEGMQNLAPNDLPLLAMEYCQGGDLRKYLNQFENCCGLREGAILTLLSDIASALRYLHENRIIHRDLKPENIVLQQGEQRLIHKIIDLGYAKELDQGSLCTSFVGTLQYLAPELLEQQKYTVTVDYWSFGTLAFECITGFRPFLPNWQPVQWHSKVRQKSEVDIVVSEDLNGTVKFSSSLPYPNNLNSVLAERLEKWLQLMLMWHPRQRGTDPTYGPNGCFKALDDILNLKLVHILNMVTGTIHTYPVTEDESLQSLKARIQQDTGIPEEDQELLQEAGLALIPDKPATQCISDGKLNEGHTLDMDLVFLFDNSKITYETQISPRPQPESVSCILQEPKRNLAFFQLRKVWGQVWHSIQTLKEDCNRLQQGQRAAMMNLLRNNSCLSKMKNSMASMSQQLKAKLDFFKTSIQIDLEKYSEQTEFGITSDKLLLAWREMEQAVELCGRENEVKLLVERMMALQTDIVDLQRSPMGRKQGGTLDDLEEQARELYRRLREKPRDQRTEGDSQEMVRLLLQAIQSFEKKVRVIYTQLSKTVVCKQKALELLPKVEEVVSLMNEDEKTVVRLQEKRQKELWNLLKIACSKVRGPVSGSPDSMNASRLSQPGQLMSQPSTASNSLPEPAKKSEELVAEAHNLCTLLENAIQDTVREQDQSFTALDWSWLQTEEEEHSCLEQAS
The experiment is described as follows: ADP-Glo kinase assay, IKK-β inhibition. The settings on record: for inhibition at 10 µM: mean ± SD, read-out: % inh. at 10 µM IKK-β; for IC50: mean ± SEM, ATP 25 µM. An excerpt: (§1) We evaluated the inhibitory activity of the final compounds against GSK-3β, IKK-β, and ROCK-1 kinases using the commercially available ADP-Glo™ kinase assay. The method was based on the measurement of luminescence that correlates with kinase activity. […] The latter are inhibitors of the kinases of interest and were integral to the design of our studies.
(§2) Promega’s Kinase Enzyme Systems (Promega; Madison, WI, USA) were used to determine the activities of the tested compounds against the human recombinant kinases GSK-3β, IKK- β, and ROCK-1. The assays were performed according to the provided manufacturer’s instruction, based on the optimized conditions of the enzymatic reactions, using the low-volume, white polystyrene, 384-well plates. The ADP-Glo™ Assay (Promega; Madison, WI, USA) was used for bioluminescent detection of the kinase activity. Stock solutions of the tested compounds in DMSO (1mM) were diluted with the Kinase Assay Buffer before use (40 mM Tris, pH 7.5, enriched with 50 µM dithiothreitol; DTT), giving the final desired concentrations. The kinase enzymes, substrates, and ATP solutions were also diluted with the assay buffer prior to use. The GSK-3β, IKK-β, and ROCK-1 substrates were derived from human muscle glycogen synthase 1, human IkBA, and human 40S ribosomal protein S6, respectively. The assay procedure was as follows: At first, the appropriate kinase enzyme (GSK-3β: 10 ng per well; IKK-β: 45 ng per well; ROCK-1: 24 ng per well) was incubated with the tested sample (10 µM in well) for 5 min. The DMSO solution (1% in well) was used in the blank samples instead of the tested inhibitors. After the incubation period, ATP (25 µM per well in the case of GSK-3β and IKK-β kinases; 5 µM per well in the case of ROCK-1 kinase) and an appropriate enzyme substrate (0.2 µg/µL in well) were added to start the enzymatic reaction. The reaction mixture was kept at room temperature for 1 h; then, the ADP-Glo™ reagent was added, to terminate the kinase reaction and deplete any remaining ATP. After 40 min, a second reagent (Kinase Detection Reagent) was applied to convert the obtained ADP to ATP and to generate light from the newly synthesized ATP using a luciferase/luciferin reaction. The mixture was incubated for another 30 min at room temperature before the luminescence was measured. The calculations of the percent of kinases’ inhibition by tested compounds were based on the equation 100 − (S/B) × 100; S and B are the enzyme activities with and without the tested sample, respectively. […] Each compound was evaluated in two independent experiments, with every data point collected in duplicate.

A further experiment has as its target T2, ROCK-1 (Homo sapiens, UniProt Q13464).
T2 construct: purchased Promega
The experiment is described as follows: ADP-Glo kinase assay, ROCK-1 inhibition. The settings on record: for IC50: mean ± SEM, ATP 5 µM; for inhibition at 10 µM: mean ± SD, read-out: % inh. at 10 µM ROCK-1.
Description: as §1
Promega’s Kinase Enzyme Systems (Promega; Madison, WI, USA) were used to determine the activities of the tested compounds against the human recombinant kinases GSK-3β, IKK- β, and ROCK-1. The assays were performed according to the provided manufacturer’s instruction, based on the optimized conditions of the enzymatic reactions, using the low-volume, white polystyrene, 384-well plates. The ADP-Glo™ Assay (Promega; Madison, WI, USA) was used for bioluminescent detection of the kinase activity. Stock solutions of the tested compounds in DMSO (1mM) were diluted with the Kinase Assay Buffer before use (40 mM Tris, pH 7.5, enriched with 50 µM dithiothreitol; DTT), giving the final desired concentrations. The kinase enzymes, substrates, and ATP solutions were also diluted with the assay buffer prior to use. The GSK-3β, IKK-β, and ROCK-1 substrates were derived from human muscle glycogen synthase 1, human IkBA, and human 40S ribosomal protein S6, respectively. […] The DMSO solution (1% in well) was used in the blank samples instead of the tested inhibitors. After the incubation period, ATP (25 µM per well in the case of GSK-3β and IKK-β kinases; 5 µM per well in the case of ROCK-1 kinase) and an appropriate enzyme substrate (0.2 µg/µL in well) were added to start the enzymatic reaction. The reaction mixture was kept at room temperature for 1 h; then, the ADP-Glo™ reagent was added, to terminate the kinase reaction and deplete any remaining ATP. After 40 min, a second reagent (Kinase Detection Reagent) was applied to convert the obtained ADP to ATP and to generate light from the newly synthesized ATP using a luciferase/luciferin reaction. The mixture was incubated for another 30 min at room temperature before the luminescence was measured. The calculations of the percent of kinases’ inhibition by tested compounds were based on the equation 100 − (S/B) × 100; S and B are the enzyme activities with and without the tested sample, respectively. […]. IC50 results were obtained using nonlinear regression (GraphPad Prism 9; GraphPad Software, San Diego, CA, USA) by plotting the residual enzyme activities against the applied inhibitor concentration. Each compound was evaluated in two independent experiments, with every data point collected in duplicate.

For a further experiment, the target named is GSK-3β (Homo sapiens, UniProt P49841). The experiment is described as follows: ADP-Glo kinase assay, GSK-3β inhibition. Set-up: purchased Promega. The settings on record: for IC50: mean ± SEM, ATP 25 µM; for inhibition at 10 µM: mean ± SD, read-out: % inh. at 10 µM GSK-3β.
Description: as §1, §2
For orientation: ADP-Glo turns the ADP formed in a reaction into a luminescent signal.

T2 sequence (Q13464 whole entry): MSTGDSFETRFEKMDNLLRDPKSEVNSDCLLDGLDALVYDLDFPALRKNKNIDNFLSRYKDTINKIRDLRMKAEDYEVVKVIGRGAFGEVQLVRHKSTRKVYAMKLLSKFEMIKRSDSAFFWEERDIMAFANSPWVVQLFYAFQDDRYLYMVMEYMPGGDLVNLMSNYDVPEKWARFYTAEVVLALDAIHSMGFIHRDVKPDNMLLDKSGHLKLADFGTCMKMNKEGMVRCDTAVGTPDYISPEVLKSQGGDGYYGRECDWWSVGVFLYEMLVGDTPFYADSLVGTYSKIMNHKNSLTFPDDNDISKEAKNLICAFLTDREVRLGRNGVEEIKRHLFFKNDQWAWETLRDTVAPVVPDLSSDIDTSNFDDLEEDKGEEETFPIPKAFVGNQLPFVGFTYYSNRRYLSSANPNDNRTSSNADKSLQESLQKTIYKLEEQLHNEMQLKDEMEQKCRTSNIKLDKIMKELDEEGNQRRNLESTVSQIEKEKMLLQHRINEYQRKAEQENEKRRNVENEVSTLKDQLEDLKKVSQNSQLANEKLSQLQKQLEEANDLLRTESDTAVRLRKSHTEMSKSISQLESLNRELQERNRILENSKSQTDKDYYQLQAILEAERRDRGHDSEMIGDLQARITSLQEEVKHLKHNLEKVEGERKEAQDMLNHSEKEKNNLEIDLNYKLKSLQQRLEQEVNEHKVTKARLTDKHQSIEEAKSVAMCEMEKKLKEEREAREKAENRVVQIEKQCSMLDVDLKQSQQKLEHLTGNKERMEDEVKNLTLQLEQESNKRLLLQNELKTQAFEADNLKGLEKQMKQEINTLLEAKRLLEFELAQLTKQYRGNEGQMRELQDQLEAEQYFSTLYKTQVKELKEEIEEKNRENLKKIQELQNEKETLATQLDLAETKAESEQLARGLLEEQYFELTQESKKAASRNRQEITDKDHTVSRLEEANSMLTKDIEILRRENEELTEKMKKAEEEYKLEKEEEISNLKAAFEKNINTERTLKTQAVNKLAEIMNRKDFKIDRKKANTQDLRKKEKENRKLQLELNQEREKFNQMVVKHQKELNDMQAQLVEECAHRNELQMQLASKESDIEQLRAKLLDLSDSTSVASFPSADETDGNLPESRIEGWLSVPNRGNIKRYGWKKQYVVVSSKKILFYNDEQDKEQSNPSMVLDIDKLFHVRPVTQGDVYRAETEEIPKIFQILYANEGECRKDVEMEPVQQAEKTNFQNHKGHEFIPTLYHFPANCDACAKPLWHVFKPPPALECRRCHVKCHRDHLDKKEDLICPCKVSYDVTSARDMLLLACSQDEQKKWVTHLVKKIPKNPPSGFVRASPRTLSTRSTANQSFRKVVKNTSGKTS
Sequence of GSK-3β (P49841 whole entry): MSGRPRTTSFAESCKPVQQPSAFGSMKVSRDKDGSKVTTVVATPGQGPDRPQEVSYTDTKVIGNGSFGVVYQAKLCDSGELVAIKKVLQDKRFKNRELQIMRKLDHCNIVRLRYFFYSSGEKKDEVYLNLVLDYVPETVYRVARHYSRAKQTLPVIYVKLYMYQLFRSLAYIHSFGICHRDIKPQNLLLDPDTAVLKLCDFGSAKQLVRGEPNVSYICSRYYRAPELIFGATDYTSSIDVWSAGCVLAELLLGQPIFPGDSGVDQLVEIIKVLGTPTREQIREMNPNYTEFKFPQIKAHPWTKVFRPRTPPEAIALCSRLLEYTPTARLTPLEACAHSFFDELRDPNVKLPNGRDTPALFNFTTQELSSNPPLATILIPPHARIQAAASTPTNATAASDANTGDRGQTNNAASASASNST

As a reminder, the IC50 is the midpoint of a concentration-inhibition curve. As for `CC1(C)NC(=O)c2sc(-c3ccnc(NC(=O)c4ccccc4)c3)cc2N1` [Compound 43, N-(4-(2,2-Dimethyl-4-oxo-1,2,3,4-tetrahydrothieno [3,2-d]pyrimidin-6-yl)pyridin-2-yl)benzamide], the inhibition at 10 µM on IKK-β turned out to be 38%. Besides, the IC50 on ROCK-1 was 3740 ± 217 nM; against GSK-3β, 1310 ± 42 nM.
`NC(=O)Nc1cc(-c2ccnc(NC(=O)c3ccccc3)c2)sc1C(N)=O` [Compound 52, 5-(2-Benzamidopyridin-4-yl)-3-ureidothiophene-2-carboxamide]: the inhibition at 10 µM on IKK-β came to 30%; on ROCK-1, 15%. The same compound showed an IC50 against GSK-3β of 398 ± 12 nM.
With `NC(=O)Nc1cc(-c2ccc(F)c(NC(=O)C3CC3)c2)sc1C(N)=O` [Compound 59, 5-(3-(Cyclopropanecarboxamido)-4-fluorophenyl)-3-ureidothiophene-2-carboxamide], the values for the IC50 against IKK-β and against GSK-3β were 7620 ± 695 nM and 1850 ± 38 nM, respectively. Also, the inhibition at 10 µM at ROCK-1 was less than 10%.
Turning to `CC1(C)NC(=O)c2sc(-c3ccnc(NS(C)(=O)=O)c3)cc2N1` [Compound 44, N-(4-(2,2-Dimethyl-4-oxo-1,2,3,4-tetrahydrothieno [3,2-d]pyrimidin-6-yl)pyridin-2-yl)-methanesulfonamide], the inhibition at 10 µM on IKK-β was less than 10%; on ROCK-1, less than 10%; on GSK-3β, 32%.
Turning to `O=C1NC2(CCCO2)Nc2cc(-c3ccnc(NC(=O)C4CC4)c3)sc21` (stereo not drawn) [Compound 61, N-(4-(4′-Oxo-3′,4,4′,5-tetrahydro-1′H,3H-spiro[furan-2,2′-thieno [3,2-d]pyrimidin]-6′-yl)pyridin-2-yl)cyclopropanecarboxamide], the inhibition at 10 µM on IKK-β is less than 10%; on ROCK-1, 40%. The compound further returned an IC50 against GSK-3β of 12 nM.
Take `CC(=O)Nc1cc(-c2cc3c(s2)C(=O)NC(C)(C)N3)ccn1` [Compound 38, N-(4-(2,2-Dimethyl-4-oxo-1,2,3,4-tetrahydrothieno [3,2-d]pyrimidin-6-yl)pyridin-2-yl)acetamide]: the IC50 on IKK-β was 6520 ± 281 nM; on GSK-3β, 1130 ± 43 nM. Further, the inhibition at 10 µM at ROCK-1 was found to be 50%.
With `CC1(C)NC(=O)c2sc(-c3cccc(NC(=O)C4CC4)c3)cc2N1` [Compound 53, N-(3-(2,2-Dimethyl-4-oxo-1,2,3,4-tetrahydrothieno [3,2-d]pyrimidin-6-yl)phenyl)cyclopropanecarboxamide], the inhibition at 10 µM was less than 10% on IKK-β, less than 10% on ROCK-1 and 47% on GSK-3β.
For `CC1(C)NC(=O)c2sc(-c3cccc(NS(=O)(=O)C4CCCCC4)c3)cc2N1` [Compound 56, N-(3-(2,2-Dimethyl-4-oxo-1,2,3,4-tetrahydrothieno [3,2-d]pyrimidin-6-yl)phenyl)cyclohexanesulfonamide], the inhibition at 10 µM is less than 10% on IKK-β, 33% on ROCK-1 and less than 10% on GSK-3β.
For `CC1(C)NC(=O)c2sc(-c3ccnc(NC(=O)C4CCCCC4)c3)cc2N1` [Compound 42, N-(4-(2,2-Dimethyl-4-oxo-1,2,3,4-tetrahydrothieno [3,2-d]pyrimidin-6-yl)pyridin-2-yl)-cyclohexanecarboxamide], the inhibition at 10 µM at IKK-β amounted to 18%; on ROCK-1 it was 30%. Besides, the IC50 against GSK-3β was 830 ± 30 nM.
On to `NC(=O)Nc1cc(-c2ccnc(NC(=O)C3CCCCC3)c2)sc1C(N)=O` [Compound 51, 5-(2-(Cyclohexanecarboxamido)pyridin-4-yl)-3-ureidothiophene-2-carboxamide], for which the inhibition at 10 µM on IKK-β was less than 10%. Half-maximal inhibition at GSK-3β (IC50) was put at 614 ± 26 nM.
Turning to `CCS(=O)(=O)Nc1cc(-c2cc3c(s2)C(=O)NC(C)(C)N3)ccn1` [Compound 45, N-(4-(2,2-Dimethyl-4-oxo-1,2,3,4-tetrahydrothieno [3,2-d]pyrimidin-6-yl)pyridin-2-yl)-ethanesulfonamide], the inhibition at 10 µM was less than 10% on IKK-β, less than 10% on ROCK-1 and 40% on GSK-3β.
As for `CC1(C)NC(=O)c2sc(-c3ccnc(NCC4CC4)c3)cc2N1` [Compound 46, 6-(2-((Cyclopropylmethyl)amino)pyridin-4-yl)-2,2-dimethyl-2,3-dihydrothieno [3,2-d]pyrimidin-4(1H)-one], the inhibition at 10 µM on IKK-β was found to be 41%; at GSK-3β it was 39%. On ROCK-1, this compound yielded an IC50 of 1730 ± 78 nM.
Turning to `CC(=O)Nc1cc(-c2cc(NC(N)=O)c(C(N)=O)s2)ccn1` [Compound 47, 5-(2-Acetamidopyridin-4-yl)-3-ureidothiophene-2-carboxamide], the inhibition at 10 µM on IKK-β turned out to be 17%; on GSK-3β, 34%.
With `CC1(C)NC(=O)c2sc(-c3ccc(F)c(NC(=O)C4CC4)c3)cc2N1` [Compound 54, N-(5-(2,2-Dimethyl-4-oxo-1,2,3,4-tetrahydrothieno [3,2-d]pyrimidin-6-yl)-2-fluorophenyl)-cyclopropanecarboxamide], the inhibition at 10 µM at IKK-β amounted to 10%. The compound also registered an IC50 on GSK-3β of 453 ± 13 nM.
Take `CC1(C)NC(=O)c2sc(-c3cccc(S(=O)(=O)N4CCCCC4)c3)cc2N1` [Compound 57, 2,2-Dimethyl-6-(3-(piperidin-1-ylsulfonyl)phenyl)-2,3-dihydrothieno [3,2-d]pyrimidin-4(1H)-one]: the inhibition at 10 µM at IKK-β is 17%; at ROCK-1, less than 10%; at GSK-3β it was less than 10%.
